Literature values, collected in patent US7385060B2, “Method for producing salts of tolperisone” (Sanochemia Pharmazeutika AG, priority 2002, dated 2008).

How the values were obtained:
HMN = details: inhalation, human, 30 m
RAT = details: oral

SMILES: C=O [formaldehyde]
- IHL-TCLO HMN (HMN): 17 mg/m^3/30 m
- ORL-RAT LD50 (RAT): 100 mg/kg
